# Measurements as given in article PMC10381170, “1,3,4-Oxadiazole and 1,3,4-Thiadiazole Nortopsentin Derivatives against Pancreatic Ductal Adenocarcinoma: Synthesis, Cytotoxic Activity, and Inhibition of CDK1” (Marine Drugs, 2023).
# What was measured:
# Panc-1-GR cells = test: SRB antiproliferative assay, gemcitabine-resistant Panc-1-GR; assay type: cell-based, human
# Description: (§1) The cytotoxic activity of the nortopsentin derivatives 3b, 3e, 4c, 5b, and 6c on pancreatic cancer cells (BxPC-3, Panc-1, Suit-2, Capan-1, PaTu-T, primary PDAC-3 and resistant Panc-1-GR cells) was determined by the sulforhodamine B (SRB) chemosensitivity assay, as described previously. Cells were plated in 96-well flat-bottom plates at final concentrations ranging from 3000–5000 cells/well in 100 µL of medium. After a 24 h pre-incubation period, cells were treated with the compounds at nine screening concentrations (from 0.1 μM to 40 μM) in triplicate and incubated at 37 °C for 72 h. After the treatment, cells were fixed with 25 µL of cold 50% trichloroacetic acid (TCA) for each well and incubated at 4 °C for 1 h. Afterwards, plates were washed five times with demi-water and air-dried overnight. Then, the plates were stained with 50 µL of 0.4% SRB solution in 1% acetic acid for 15 min. The excess stain was rinsed off by placing the plates under running 1% acetic acid and allowed to dry at room temperature overnight. SRB staining was rinsed with 150 µL tris(hydroxymethyl)aminomethane solution pH = 8.8 (TRIS-base), and the optical density (OD) was read at 492 nm. Each assay was performed in triplicate and assays were repeated at least three times. The comparison of the average optical density of the growth in control wells with that in the sample wells allowed the estimation of the percentage of cell growth, using the following equation: % Cell Growth = (mean ODcompound − mean ODday zero plate)/(mean ODcells − mean ODday zero plate) × 100
# (§2) The results obtained were adjusted by the day zero plate (wells containing cells growing for only 24 h) and normalized by the control cells (wells with untreated cells) to obtain the rate of viable cells.
# PaTu-T cells = test: SRB antiproliferative assay, PaTu-T; assay type: cell-based, human
# Description: as §1, §2
# PDAC-3 cells = test: SRB antiproliferative assay, primary culture PDAC-3; assay type: cell-based, human
# Description: as §1, §2
# [1] = tested on: normal human skin fibroblasts Hs27; test: SRB cytotoxicity on normal fibroblasts; assay type: cell-based
# Description: The compound was tested at eight different concentrations ranging from 0.31 μM to 40 μM using the SRB assay. […] At the highest concentration tested (40 μM), only 18% growth inhibition was observed after 72 h of exposure. […] These findings provide evidence of the potential safety of compound 3b for further development as a therapeutic agent.
# as §1
# CDK1 = CDK1 ELISA in PDAC-3; assay type: cell-based, human; settings: PDAC-3, 10 µM, 24 h, vs DMSO control, p < 0.01
# Description: The expression of CDK1 was detected and quantified using an Enzyme-Linked Immunosorbent Assay (ELISA, Human cyclin-dependent kinase 1 (CDK1) ELISA Kit, Catalog Number: MBS707090) according to the manufacturer’s protocol and our previous studies. Volumes of 100 µL of the standard and the sample were added for each well, and the plates were incubated for 2 h at 37 °C. Then, the liquid was removed, and 100 µL of biotin-antibody was added to each well; the plates were then incubated for 1 h at 37 °C. The medium was removed, and the plates were washed with wash buffer (200 µL). Subsequently, 100 µL of HRP-avidin was added to each well, and the plates were incubated for 1 h at 37 °C. The washing process was repeated five times. At the end, 90 µL of TMB substrate was added to each well, and the plates were incubated for 30 min at 37 °C in the dark. Finally, 50 µL of stop solution was added to each well. The optical density of each well was determined using a microplate reader set to 450 nm.
# [2] = Homo sapiens, 72 h, mean ± SEM, read-out: Half-maximal inhibitory concentration (IC50)
smiles,measurement,setting,value
"Cn1cc(-c2nnc(-c3cn(C)c4ncccc34)o2)c2ccccc21 [3b, 1-methyl-3-[5-(1-methyl-1H-indol-3-yl)-1,3,4-oxadiazol-2-yl]-7-azaindole]",Cell growth percentage,"Panc-1-GR cells; 10 μM, 72 h exposure",22.47%
same,IC50,Panc-1-GR cells; [2],8 ± 2.8 µM
same,Cell growth percentage,"PaTu-T cells; 10 μM, 72 h exposure",17.13%
same,IC50,PaTu-T cells; [2],3.2 ± 0.42 µM
same,IC50,"PDAC-3 cells; Homo sapiens, PDAC-3, 72 h, mean ± SEM, read-out: Half-maximal inhibitory concentration (IC50)",8.1 ± 0.14 µM
same,Cell growth percentage,"PDAC-3 cells; PDAC-3, 10 μM, 72 h exposure",38.35%
same,growth inhibition,"[1]; Hs27, 40 μM (highest concentration), 72 h",18%
same,cytotoxicity towards normal fibroblast cells,"[1]; Hs27, 0.31-40 μM",relatively non-toxic
same,cell growth rate,"[1]; Hs27, concentrations below 10 μM, 72 h",~100%
same,CDK1 expression by ELISA,CDK1,reduction in CDK1 expression
